# PubChem BioAssay (NCI)
#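 Interpolation was linear, between the two tested concentrations surrounding the appropriate level; five concentrations were tested over 48 hours in 96-well plates. Abbreviation: GI50, concentration required for 50% inhibition of growth. TGI: total growth inhibition.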
# Experiments:
# Assay in all cases: NCI tumour cell line growth inhibition, 48 h
# 786-0 renal = test system: 786-0 renal
# A498 renal = test system: A498 renal
# A549 NSCLC = test system: A549 NSCLC
# ACHN renal = test system: ACHN renal
# BT-549 breast = test system: BT-549 breast
# CAKI-1 renal = test system: CAKI-1 renal
# CCRF-CEM leukemia = test system: CCRF-CEM leukemia
# COLO 205 colon = test system: COLO 205 colon
# DU-145 prostate = test system: DU-145 prostate
# HCC-2998 colon = test system: HCC-2998 colon
# HCT-116 colon = test system: HCT-116 colon
# HCT-15 colon = test system: HCT-15 colon
# HOP-62 NSCLC = test system: HOP-62 NSCLC
# HOP-92 NSCLC = test system: HOP-92 NSCLC
# HS 578T breast = test system: HS 578T breast
# HT29 colon = test system: HT29 colon
# IGROV1 ovarian = test system: IGROV1 ovarian
# K-562 leukemia = test system: K-562 leukemia
# KM12 colon = test system: KM12 colon
# LOX IMVI melanoma = test system: LOX IMVI melanoma
# M14 melanoma = test system: M14 melanoma
# MALME-3M melanoma = test system: MALME-3M melanoma
# MCF7 breast = test system: MCF7 breast
# MDA-MB-231 breast = test system: MDA-MB-231 breast
# MDA-MB-435 = test system: MDA-MB-435
# MOLT-4 leukemia = test system: MOLT-4 leukemia
# NCI-H226 lung = test system: NCI-H226 lung
# NCI-H460 lung = test system: NCI-H460 lung
# NCI-H522 lung = test system: NCI-H522 lung
# NCI/ADR-RES ovarian = test system: NCI/ADR-RES ovarian
# OVCAR-3 ovarian = test system: OVCAR-3 ovarian
# OVCAR-4 ovarian = test system: OVCAR-4 ovarian
# OVCAR-5 ovarian = test system: OVCAR-5 ovarian
# OVCAR-8 ovarian = test system: OVCAR-8 ovarian
# RPMI-8226 leukemia = test system: RPMI-8226 leukemia
# RXF 393 renal = test system: RXF 393 renal
# SF-268 CNS = test system: SF-268 CNS
# SF-295 CNS = test system: SF-295 CNS
# SF-539 CNS = test system: SF-539 CNS
# SK-MEL-2 melanoma = test system: SK-MEL-2 melanoma
# SK-MEL-28 melanoma = test system: SK-MEL-28 melanoma
# SK-MEL-5 melanoma = test system: SK-MEL-5 melanoma
# SK-OV-3 ovarian = test system: SK-OV-3 ovarian
# SN12C renal = test system: SN12C renal
# SNB-19 CNS = test system: SNB-19 CNS
# SNB-75 CNS = test system: SNB-75 CNS
# SR leukemia = test system: SR leukemia
# SW-620 colon = test system: SW-620 colon
# T-47D breast = test system: T-47D breast
# TK-10 renal = test system: TK-10 renal
# U251 CNS = test system: U251 CNS
# UACC-257 melanoma = test system: UACC-257 melanoma
# UO-31 renal = test system: UO-31 renal
smiles,measurement,setting,value
C[CH2][Pb]([CH2]C)([CH2]C)[O]C(=O)COc1ccccc1,GI50,786-0 renal,2.13 µM
same,TGI,786-0 renal,5.72 µM
same,GI50,A498 renal,1.75 µM
same,TGI,A498 renal,6.61 µM
same,GI50,A549 NSCLC,1.82 µM
same,TGI,A549 NSCLC,5.65 µM
same,GI50,ACHN renal,2.51 µM
same,TGI,ACHN renal,11.3 µM
same,GI50,BT-549 breast,1.78 µM
same,TGI,BT-549 breast,6.4 µM
same,GI50,CAKI-1 renal,1.95 µM
same,TGI,CAKI-1 renal,6.18 µM
same,GI50,CCRF-CEM leukemia,1.23 µM
same,TGI,CCRF-CEM leukemia,4.86 µM
same,GI50,COLO 205 colon,1.96 µM
same,TGI,COLO 205 colon,4.51 µM
same,GI50,DU-145 prostate,2.43 µM
same,TGI,DU-145 prostate,10.7 µM
same,GI50,HCC-2998 colon,1.65 µM
same,TGI,HCC-2998 colon,3.85 µM
same,GI50,HCT-116 colon,1.44 µM
same,TGI,HCT-116 colon,2.9 µM
same,GI50,HCT-15 colon,1.98 µM
same,TGI,HCT-15 colon,11.6 µM
same,GI50,HOP-62 NSCLC,1.64 µM
same,TGI,HOP-62 NSCLC,3.76 µM
same,GI50,HOP-92 NSCLC,0.39 µM
same,TGI,HOP-92 NSCLC,4.1 µM
same,GI50,HS 578T breast,1.53 µM
same,TGI,HS 578T breast,5.2 µM
same,GI50,HT29 colon,1.74 µM
same,TGI,HT29 colon,4.61 µM
same,GI50,IGROV1 ovarian,1.64 µM
same,TGI,IGROV1 ovarian,6.52 µM
same,GI50,K-562 leukemia,1.47 µM
same,TGI,K-562 leukemia,6.64 µM
same,GI50,KM12 colon,1.51 µM
same,TGI,KM12 colon,5.84 µM
same,GI50,LOX IMVI melanoma,1.4 µM
same,TGI,LOX IMVI melanoma,3.22 µM
same,GI50,M14 melanoma,1.39 µM
same,TGI,M14 melanoma,6.67 µM
same,GI50,MALME-3M melanoma,0.441 µM
same,TGI,MALME-3M melanoma,7.11 µM
same,GI50,MCF7 breast,1.77 µM
same,TGI,MCF7 breast,9.34 µM
same,GI50,MDA-MB-231 breast,1.63 µM
same,TGI,MDA-MB-231 breast,4.84 µM
same,GI50,MDA-MB-435,0.214 µM
same,TGI,MDA-MB-435,0.502 µM
same,GI50,MOLT-4 leukemia,1.95 µM
same,TGI,MOLT-4 leukemia,4.63 µM
same,GI50,NCI-H226 lung,1.83 µM
same,TGI,NCI-H226 lung,6.04 µM
same,GI50,NCI-H460 lung,2.21 µM
same,TGI,NCI-H460 lung,5.94 µM
same,GI50,NCI-H522 lung,0.562 µM
same,TGI,NCI-H522 lung,2.11 µM
same,GI50,NCI/ADR-RES ovarian,1.97 µM
same,TGI,NCI/ADR-RES ovarian,9.24 µM
same,GI50,OVCAR-3 ovarian,1.7 µM
same,TGI,OVCAR-3 ovarian,5.27 µM
same,GI50,OVCAR-4 ovarian,0.949 µM
same,TGI,OVCAR-4 ovarian,4.96 µM
same,GI50,OVCAR-5 ovarian,1.74 µM
same,TGI,OVCAR-5 ovarian,4.61 µM
same,GI50,OVCAR-8 ovarian,1.76 µM
same,TGI,OVCAR-8 ovarian,5.68 µM
same,GI50,RPMI-8226 leukemia,1.03 µM
same,TGI,RPMI-8226 leukemia,3.12 µM
same,GI50,RXF 393 renal,1.05 µM
same,TGI,RXF 393 renal,3.26 µM
same,GI50,SF-268 CNS,1.67 µM
same,TGI,SF-268 CNS,4.54 µM
same,GI50,SF-295 CNS,1.51 µM
same,TGI,SF-295 CNS,3.13 µM
same,GI50,SF-539 CNS,1.81 µM
same,TGI,SF-539 CNS,4.63 µM
same,GI50,SK-MEL-2 melanoma,0.382 µM
same,TGI,SK-MEL-2 melanoma,1.73 µM
same,GI50,SK-MEL-28 melanoma,0.784 µM
same,TGI,SK-MEL-28 melanoma,11 µM
same,GI50,SK-MEL-5 melanoma,1.19 µM
same,TGI,SK-MEL-5 melanoma,2.56 µM
same,GI50,SK-OV-3 ovarian,2.08 µM
same,TGI,SK-OV-3 ovarian,6.1 µM
same,GI50,SN12C renal,2.39 µM
same,TGI,SN12C renal,9.61 µM
same,GI50,SNB-19 CNS,2.36 µM
same,TGI,SNB-19 CNS,11.3 µM
same,GI50,SNB-75 CNS,1.24 µM
same,TGI,SNB-75 CNS,11.3 µM
same,GI50,SR leukemia,0.595 µM
same,TGI,SR leukemia,3.88 µM
same,GI50,SW-620 colon,0.641 µM
same,TGI,SW-620 colon,2.47 µM
same,GI50,T-47D breast,0.757 µM
same,TGI,T-47D breast,8.82 µM
same,GI50,TK-10 renal,1.63 µM
same,TGI,TK-10 renal,5.21 µM
same,GI50,U251 CNS,1.74 µM
same,TGI,U251 CNS,3.89 µM
same,GI50,UACC-257 melanoma,0.557 µM
same,TGI,UACC-257 melanoma,4.75 µM
same,GI50,UO-31 renal,1.05 µM
same,TGI,UO-31 renal,3.7 µM
